Reference: patent EP0443598A2, “Peptides inhibiting the blood coagulation, their process of preparation and their use” (BEHRINGWERKE Aktiengesellschaft, priority 1990, dated 1991)

System: Standard Humanplasma
Assay: partial thromboplastin time (PTT) test
Assay type: biochemical, Human
Conditions: blank without peptide 38.8
Protocol: 10 mg des Peptids wurden in 1 ml Puffer (20 mM Tris, 150 mM NaCl pH 7.5) gelöst. Das Peptid wurde in der partiellen Thromboplastinzeit (PTT) gegenüber einem Peptid mit derselben Sequenz getestet, das anstelle von Phe(SO₃ H) jedoch Tyr enthielt.
100 Mikroliter Standard Humanplasma 100 Mikroliter Puffer (s.o.) 100 Mikroliter Kaolin/Pathromtin Reagenz (BEHRINGWERKE AG) 2 Minuten bei 37°C 100 Mikroliter CaCl₂-Lösung

[1] = Verdünnung 1:4 of peptide solution 10 mg in 1 ml buffer (20 mM Tris, 150 mM NaCl pH 7.5)
[2] = Verdünnung 1:8 of peptide solution 10 mg in 1 ml buffer
[3] = Verdünnung 1:16 of peptide solution 10 mg in 1 ml buffer
[4] = Verdünnung 1:32 of peptide solution 10 mg in 1 ml buffer
[5] = Verdünnung 1:64 of peptide solution 10 mg in 1 ml buffer
[6] = Verdünnung 1:128 of peptide solution 10 mg in 1 ml buffer
[7] = Verdünnung 1:256 of peptide solution 10 mg in 1 ml buffer
[8] = Verdünnung 1:512 of peptide solution 10 mg in 1 ml buffer
[9] = Verdünnung 1:1024 of peptide solution 10 mg in 1 ml buffer

Substance	Gerinnungszeiten in Sekunden [1]	Gerinnungszeiten in Sekunden [2]	Gerinnungszeiten in Sekunden [3]	Gerinnungszeiten in Sekunden [4]	Gerinnungszeiten in Sekunden [5]	Gerinnungszeiten in Sekunden [6]	Gerinnungszeiten in Sekunden [7]	Gerinnungszeiten in Sekunden [8]	Gerinnungszeiten in Sekunden [9]
Asn-Gly-Asp-Phe-Glu-Glu-Ile-Pro-Glu-Glu-Tyr-Leu-OH (NGDFEEIPEEYL; printed: Asn-Gly-Asp-Phe-Glu-Glu-Ile-Pro-Glu-Glu-Tyr-Leu-) [Peptid mit Tyr]	105.2 Sekunden	80.5 Sekunden	71.0 Sekunden	65.0 Sekunden	57.7 Sekunden	52.8 Sekunden	47.3 Sekunden	44.7 Sekunden	41.7 Sekunden
Asn-Gly-Asp-Phe-Glu-Glu-Ile-Pro-Glu-Glu-Phe(SO₃H)-Leu-OH [Peptid lt. Beispiel]	147.2 Sekunden	111.8 Sekunden	89.2 Sekunden	81.5 Sekunden	72.8 Sekunden	63.0 Sekunden	56.3 Sekunden	52.2 Sekunden	46.8 Sekunden
